Data from patent US12427134B2, “Methods of reducing the risk of cardiovascular events in a subject with atrial fibrillation and/or atrial flutter” (priority 2019, dated 2025).

System: hypertriglyceridemic patients with cardiovascular disease or at high risk for cardiovascular disease
Assay: REDUCE-IT: subgroup analyses of the primary and key secondary endpoints
Format: in vivo, human
Details: for Primary endpoint, patients with event (%) / Time to primary endpoint, HR (95% CI) AMR101/Placebo / Primary endpoint, patients with event n/N: ITT
Description: Exploratory Subgroup Analyses: Analyses of the effects that patients off study drug and withdrawn from study have on the primary endpoint were performed. Subgroup analyses of the primary and key secondary endpoints were performed as described for the primary endpoint. For each subgroup, Kaplan-Meier estimates, the log-rank test stratified by stratification factors used at randomization (except where the subgroup was a stratification factor), and HRs and CIs from the Cox proportional hazards model as specified for the primary efficacy endpoint, were summarized by treatment group. Demographic, disease, treatment, and baseline lipid and lipoproteins parameters were explored.
Demographic parameters included: Gender; age at baseline (<65 years and ≥65 years); race (white and nonwhite, or any other subset with at least 10% of the total number of patients); geographical region (Westernized, Eastern European, and Asia Pacific countries); and baseline ezetimibe use (yes/no).
Disease parameters included: CV risk category; the presence/absence of diabetes at baseline; and renal dysfunction at baseline (estimated glomerular filtration rate [eGFR]<60 mL/min/1.73 m^2) using the Chronic Kidney Disease Epidemiology Collaboration (CKD-EPI) equation as follows: eGFR=141×min(Scr/κ,1)^α×max(Scr/κ,1)^[…]^Age×1.018 [if female]×1.159 [if black]
Treatment Parameters included: Statin intensity at baseline (statin type and regimen); and statin intensity categories as defined in ACC/AHA Cholesterol Guidelines (Stone 2013) and patient's 10-year CV Risk Score (Goff 2013).
Baseline Lipid and Lipoprotein Parameter included: LDL-C (by tertile); HDL-C (by tertile, and tertile by gender); TG (by tertile, and tertile by gender); RLP-C (by tertile); TG ≥150 mg/dL and TG <150 mg/dL; TG ≥200 mg/dL and TG <200 mg/dL; TG ≥median, TG <median; combined highest tertile for TG and lowest tertile for HDL-C; gender-specific highest tertile for TG and lowest tertile for HDL-C; TG ≥200 mg/dL with HDL-C ≤35 mg/dL; hsCRP (≤3 mg/L and >3 mg/L) and by gender; hsCRP (≤2 mg/L and >2 mg/L) and by gender; Apo B (by tertile); non-HDL-C (by tertile); baseline hemoglobin A1c (Hb1c) value (<6.5%, ≥6.5%); baseline PAD; and baseline TG levels ≥150 mg/dL with high-density lipoprotein cholesterol (HDL-C) levels ≤40 mg/dL for males and ≤50 mg/dL for females.
A Cox proportional hazard (PH) model as mentioned above but additionally with baseline TG as a covariate were fitted to the data at each interim. Diagnostic plots for the PH assumption were evaluated. The consistency of the treatment effects in subgroups was assessed for the primary and key secondary efficacy endpoints. For each subgroup variable, a Cox PH model with terms for treatment, stratification factors (with the exception of those subgroup variables related to the stratification factors, i.e., CV risk category), subgroup, and treatment-by-subgroup interaction were performed. The main treatment effect was tested with this model. P-values for testing the interaction terms <0.15 were considered significant. Results were presented in a Forest plot.
Subgroup analyses of the primary and key secondary endpoints were performed as described for the primary endpoint. For each subgroup, Kaplan-Meier estimates, the log-rank test stratified by stratification factors used at randomization (except where the subgroup was a stratification factor), and HRs and CIs from the Cox proportional hazards model as specified for the primary efficacy endpoint, were summarized by treatment group. All subgroup analyses were conducted for the ITT, mITT and PP populations.
Of note regarding the following subgroup analyses, per study design, subgroup analyses are underpowered to detect statistically significant results within each individual subgroup, particularly when a subgroup represents less than 50% of the enrolled population, and when a subgroup has low event rates. […]

[1] = Baseline TG <150 mg/dL or HDL-C >40 mg/dL (Males) or >50 mg/dL (Females)
[2] = Baseline TG ≥150 mg/dL and HDL-C ≤40 mg/dL (Males) or ≤50 mg/dL (Females)
[3] = Females, Baseline hsCRP >2 mg/L
[4] = Females, Baseline hsCRP ≤2 mg/L
[5] = Females, HDL-C Highest Tertile (>48 to ≤96.5 mg/dL)
[6] = Females, HDL-C Lowest Tertile (≥21 to ≤41 mg/dL)
[7] = Females, HDL-C Middle Tertile (>41 to ≤48 mg/dL)
[8] = Females, Highest tertile for baseline TG and lowest tertile for baseline HDL-C (No)
[9] = Females, Highest tertile for baseline TG and lowest tertile for baseline HDL-C (Yes)
[10] = Females, TG Highest Tertile (>241.5 to ≤1401 mg/dL)
[11] = Females, TG Lowest Tertile (≥92.5 to ≤186 mg/dL)
[12] = Females, TG Middle Tertile (>186 to ≤241.5 mg/dL)
[13] = Males, HDL-C Highest Tertile (>42 to ≤107.5 mg/dL)
[14] = Males, HDL-C Lowest Tertile (≥17 to ≤35.5 mg/dL)
[15] = Males, HDL-C Middle Tertile (>35.5 to ≤42 mg/dL)
[16] = Males, Highest tertile for baseline TG and lowest tertile for baseline HDL-C (No)
[17] = Males, Highest tertile for baseline TG and lowest tertile for baseline HDL-C (Yes)
[18] = Males, TG Highest Tertile (>253.5 to ≤830 mg/dL)
[19] = Males, TG Lowest Tertile (≥81.25 to ≤191.5 mg/dL)
[20] = Males, TG Middle Tertile (>191.5 to ≤253.5 mg/dL)
[21] = Overall (Males and Females), Baseline hsCRP >2 mg/L
[22] = Overall (Males and Females), Baseline hsCRP ≤2 mg/L
[23] = Overall (Males and Females), HDL-C Highest Tertile (>43.5 to ≤107.5 mg/dL)
[24] = Overall (Males and Females), HDL-C Lowest Tertile (≥17 to ≤36.5 mg/dL)
[25] = Overall (Males and Females), HDL-C Middle Tertile (>36.5 to ≤43.5 mg/dL)
[26] = Overall (Males and Females), Highest tertile for baseline TG and lowest tertile for baseline HDL-C (No)
[27] = Overall (Males and Females), Highest tertile for baseline TG and lowest tertile for baseline HDL-C (Yes)
[28] = Overall (Males and Females), TG Highest Tertile (>250 to ≤1401 mg/dL)

## CC/C=C\C/C=C\C/C=C\C/C=C\C/C=C\CCCC(=O)OCC [AMR101, eicosapentaenoic acid ethyl ester]
<65 years subgroup
  Key secondary endpoint event, patients: 9.0%
  Key secondary endpoint, HR: 0.652
  Primary endpoint event, patients: 14.4%
  Primary endpoint, HR: 0.650
Baseline HbA1c <6.5%
  Primary endpoint, patients with event (%): 16.5%
  Time to primary endpoint, HR (95% CI) AMR101/Placebo: 0.793
Baseline HbA1c ≥6.5%
  Time to primary endpoint, HR (95% CI) AMR101/Placebo: 0.701
[1]
  Primary endpoint, patients with event (%): 18.2%
  Time to primary endpoint, HR (95% CI) AMR101/Placebo: 0.842
[2]
  Primary endpoint, patients with event (%): 16.5%
  Time to primary endpoint, HR (95% CI) AMR101/Placebo: 0.691
[3]
  Primary endpoint, patients with event (%): (15.0) %
  Primary endpoint, patients with event n/N: 113/752
  Time to primary endpoint, HR (95% CI) AMR101/Placebo: 0.930
[4]
  Primary endpoint, patients with event (%): (10.0) %
  Primary endpoint, patients with event n/N: 41/409
  Time to primary endpoint, HR (95% CI) AMR101/Placebo: 0.621
[5]
  Primary endpoint, patients with event (%): (13.9) %
  Primary endpoint, patients with event n/N: 50/359
  Time to primary endpoint, HR (95% CI) AMR101/Placebo: 0.936
[6]
  Primary endpoint, patients with event (%): (16.7) %
  Primary endpoint, patients with event n/N: 71/426
  Time to primary endpoint, HR (95% CI) AMR101/Placebo: 0.894
[7]
  Primary endpoint, patients with event (%): (8.8) %
  Primary endpoint, patients with event n/N: 33/374
  Time to primary endpoint, HR (95% CI) AMR101/Placebo: 0.609
[8]
  Primary endpoint, patients with event (%): (13.7) %
  Primary endpoint, patients with event n/N: 59/431
  Time to primary endpoint, HR (95% CI) AMR101/Placebo: 0.755
[9]
  Primary endpoint, patients with event (%): (15.7) %
  Primary endpoint, patients with event n/N: 29/185
  Time to primary endpoint, HR (95% CI) AMR101/Placebo: 0.934
[10]
  Primary endpoint, patients with event (%): (12.3) %
  Primary endpoint, patients with event n/N: 46/375
  Time to primary endpoint, HR (95% CI) AMR101/Placebo: 0.734
[11]
  Primary endpoint, patients with event n/N: 49/396
  Time to primary endpoint, HR (95% CI) AMR101/Placebo: 0.728
[12]
  Primary endpoint, patients with event (%): (15.1) %
  Primary endpoint, patients with event n/N: 59/390
  Time to primary endpoint, HR (95% CI) AMR101/Placebo: 1.077
Males, Baseline hsCRP >2 mg/L
  Primary endpoint, patients with event (%): (21.5) %
  Time to primary endpoint, HR (95% CI) AMR101/Placebo: 0.772
Males, Baseline hsCRP ≤2 mg/L
  Primary endpoint, patients with event (%): (16.4) %
  Time to primary endpoint, HR (95% CI) AMR101/Placebo: 0.691
[13]
  Primary endpoint, patients with event (%): (20.5) %
  Primary endpoint, patients with event n/N: 187/913
  Time to primary endpoint, HR (95% CI) AMR101/Placebo: 0.857
[14]
  Primary endpoint, patients with event (%): (19.0) %
  Time to primary endpoint, HR (95% CI) AMR101/Placebo: 0.652
[15]
  Primary endpoint, patients with event (%): (16.9) %
  Primary endpoint, patients with event n/N: 160/945
  Time to primary endpoint, HR (95% CI) AMR101/Placebo: 0.717
[16]
  Primary endpoint, patients with event (%): (18.1) %
  Time to primary endpoint, HR (95% CI) AMR101/Placebo: 0.693
[17]
  Primary endpoint, patients with event (%): (19.9) %
  Primary endpoint, patients with event n/N: 90/453
  Time to primary endpoint, HR (95% CI) AMR101/Placebo: 0.632
[18]
  Primary endpoint, patients with event (%): (18.9) %
  Primary endpoint, patients with event n/N: 181/960
  Time to primary endpoint, HR (95% CI) AMR101/Placebo: 0.671
[19]
  Primary endpoint, patients with event (%): (19.0) %
  Primary endpoint, patients with event n/N: 185/972
[20]
  Primary endpoint, patients with event (%): (18.6) %
  Primary endpoint, patients with event n/N: 185/993
  Time to primary endpoint, HR (95% CI) AMR101/Placebo: 0.741
[21]
  Primary endpoint, patients with event (%): (19.2) %
  Time to primary endpoint, HR (95% CI) AMR101/Placebo: 0.813
[22]
  Primary endpoint, patients with event (%): (15.0) %
  Time to primary endpoint, HR (95% CI) AMR101/Placebo: 0.680
[23]
  Primary endpoint, patients with event (%): 15.9%
  Time to primary endpoint, HR (95% CI) AMR101/Placebo: 0.812
[24]
  Primary endpoint, patients with event (%): 18.1%
  Time to primary endpoint, HR (95% CI) AMR101/Placebo: 0.667
[25]
  Primary endpoint, patients with event (%): 17.6%
  Time to primary endpoint, HR (95% CI) AMR101/Placebo: 0.800
[26]
  Primary endpoint, patients with event (%): (16.3) %
  Time to primary endpoint, HR (95% CI) AMR101/Placebo: 0.679
[27]
  Primary endpoint, patients with event (%): (19.1) %
  Primary endpoint, patients with event n/N: 118/619
  Time to primary endpoint, HR (95% CI) AMR101/Placebo: 0.670
[28]
  Primary endpoint, patients with event (%): 16.9%
  Time to primary endpoint, HR (95% CI) AMR101/Placebo: 0.675
